Laboratory results as given in patent US10328092B2, “Methods and compositions for treatment of drug addiction” (The Royal Institution for the Advancement of Learning / …, priority 2015, dated 2019).
Counter-ions that a name gives are not always drawn.

What was measured:
[1] = test system: primary rat microglia cultures; experiment: TNFα mRNA in primary rat microglia cultures; assay type: cell-based; conditions: agonist 1 μm, 3 h
Method: For tissue, total RNA from the ventral striatum was extracted and isolated by RNAqueous-4PCR total RNA isolation kit (Ambion, AM1914), according to manufacturer's instructions. For microglia and astrocyte cultures, total RNA was isolated by RNeasy kit (Qiagen, 74136). For all sample types, 0.5 μg of total RNA was used for cDNA synthesis with Quantitect Reverse Transcription Kit (Qiagen, 205313), and quantitative RT-PCR was performed with Fast SYBR-Green Master Mix (Applied Biosystems) detected by StepOne Plus RealTime PCR system (Applied Biosystems). The sequences of qPCR primers used for mRNA quantification in this study were obtained from Integrated DNA Technologies, and are as follows: mouse TNFα forward, […] (SEQ ID NO: 1) [200 nM]; mouse TNFα reverse, […] (SEQ ID NO: 2) [200 nM]; mouse GAPDH forward, […] (SEQ ID NO: 3) [300 nM]; mouse GAPDH reverse, […] (SEQ ID NO: 4) [300 nM]; rat TNFα forward, […] (SEQ ID NO: 1) [600 nM]; rat TNFα reverse, […] (SEQ ID NO: 5) [600 nM]; rat cyclophilin forward, […] (SEQ ID NO: 6) [500 nM]; rat cyclophilin reverse, […] (SEQ ID NO: 7) [500 nM]. After 40 cycles, the Ct values were determined. To normalize the samples, ΔCt between TNFα and GADPH or cyclophilin Ct values was calculated. The x-fold difference in expression between the different treatments was then determined by subtraction of the ΔCt values and termed ΔΔCt. Finally, the total change was calculated as 2-ΔΔct and the relative amount compared with control samples was deducted.
Mixed microglia-astrocyte primary cultures were prepared from the striatum of postnatal rats (day 0), essentially as described (Beattie et al., 2002). Briefly, tissue was dissociated by […], and cells were seeded in glia media (MEM containing 5% FBS, 1.5% high sucrose MEM and 0.1% glutamax) on culture flasks (Corning) coated with poly-D lysine (Sigma) and placed in a humidified incubator at 37 C with 5% CO2. Neurons were removed by mechanical disruption and the medium was changed at day 1, and every 5-7 days after. […]

D1-MSNs in the NAc core [2] = experiment: AMPA/NMDA ratio, acute NAc slices treated ex-vivo with TNFα, D1-MSNs; assay type: cell-based, mouse; conditions: for mean AMPA/NMDA ratio, D1 MSNs: NAc core
Method: (§1) It has been previously shown that TNFα drives internalization of AMPARs on MSNs in the dorsal striatum (Lewitus et al., 2014). As repeated cocaine administration primarily affects direct-pathway MSNs, specific subpopulations of MSNs in the NAc core were tested for their response to TNFα. Acute NAc slices were incubated with TNFα (10 ng/ml or 100 ng/ml) and whole-cell recording were made for Drd1a-td Tomato (D1) positive and negative (D2) MSNs. […] A low dose of TNFα (10 ng/ml) had no significant effect on either cell type.
(§2) Repeated non-contingent administration of cocaine results in lower AMPA/NMDA ratios of excitatory inputs onto the NAc specifically on the D1-MSN subtype (Kim et al., 2011; Pascoli et al., 2012). To test whether the decrease in AMPA/NMDA ratios after repeated drug administration is due to the increase in TNFα expression, the AMPA/NMDA ratio was evaluated on D1 and D2 MSNs in the NAc core following cocaine or saline administration in WT and TNFα^−/− mice. […] This is consistent with the exocytosis of AMPARs observed with direct stimulation of D1Rs on MSNs (Mangiavacchi and Wolf, 2004). […] To test the hypothesis that potentiated D1-MSNs are more sensitive to TNFα, TNFα mice were treated with a single injection of cocaine and the effect of a low level of TNFα (10 ng/ml) on AMPA/NMDA ratios was evaluated. […] This treatment had no effect on D2-MSNs (FIG. 9B). To test whether cocaine-induced TNFα signaling would occlude further TNFα synaptic depression, wildtype animals were treated with cocaine for 5 days, and then treated striatel slices ex-vivo with TNFα (100 ng/ml). The AMPA/NMDA ratio on D1-MSNs (already reduced compared to saline treated animals; FIG. 5E) was not further reduced by treatment with TNFα (FIG. 5G).
. After a 1 h recovery period, slices were placed in a submersion-type recording chamber and perfused (1.5-2 ml/min) at 30° C. with a bicarbonate-buffered artificial CSF saturated with 95% O2/5% CO2 and containing (in mM): 119 NaCl, 2.5 KCl, 1 NaH2PO4, 1.3 MgCl2, 2.5 CaCl2, 26.2 NaHCO3, 11 glucose, and 0.05 picrotoxin. Whole-cell voltage-clamp recordings from medium spiny neurons in the nucleus accumbens core were obtained under visual control using infrared-differential interference contrast microscopy. Whole-cell electrodes (2-4 MΩ) were filled with internal solution containing the following (in mM): 120 CsMeSO3, 15 CsCl, 8 NaCl, 0.2 EGTA, 10 HEPES, 2 Mg-ATP, 0.3 Na-GTP, 10 tetraethylammonium, and 5 QX-314 [5-N-(2,6-dimethylphenylcarbamoylmethyl)triethylammonium bromide] (308-310 mOsm). pH was adjusted to 7.3 with CsOH. Cells with series resistance above 25 MΩ or a 20% change over time were excluded. Synaptic currents were evoked using stainless-steel bipolar stimulating electrodes placed 100-150 μm rostral to the recorded neurons. […]

D2-MSNs in the NAc core = experiment: AMPA/NMDA ratio, acute NAc slices treated ex-vivo with TNFα, D2-MSNs; assay type: cell-based, mouse; conditions: for mean AMPA/NMDA ratio, D2 MSNs: NAc core
Method: as §1, §2
. […] Synaptic currents were evoked using stainless-steel bipolar stimulating electrodes placed 100-150 μm rostral to the recorded neurons. […]

TNFα = TNFα mRNA / protein in ventral striatum (NAc) after in vivo treatment; set-up: species or system mouse; conditions: L741,626 i.p. 3 mg/kg 15 min before daily cocaine, 5 days; adult mice
Method: To determine the effect of in vivo cocaine exposure on TNFα levels in the ventral striatum, TNFα mRNA and protein levels were measured in mice given intraperitoneal injections of saline or cocaine. […] To understand the impact of TNFα on synaptic function in the NAc, AMPA/NMDA ratios were measured at glutamatergic synapses on MSNs in the NAc core. Alteration in NAc core AMPA receptors are involved in the expression of behavioral sensitization to psychostimulants (Kalives, 2009).
Mice (8-10 weeks) were perfused and their brains submerged overnight in 4% PFA, cryoprotected with 30% sucrose, and cut in 30 μm thick coronal slices using a cryostat. The sections were incubated for 4 hours with blocking solution (2% normal goat serum, 3% BSA, 0.2% Triton X-100 in PBS) before incubation overnight at 4 C with primary antibodies in blocking solution (rabbit anti-Iba1 antibody [019-19741, Wako; 1:800; RRID: AB_2566825], chicken anti-GFAP antibody [AB5541, Millipore; 1:500; RRID: AB_177521], rabbit anti-NeuN [ab104225, Abcam, 1:400; RRID: AB_10711153], and rabbit anti-TNFα antibody [ab6671, Abcam, 1:100; RRID: AB_305641] or mouse anti-TNFα antibody [ab1793, Abcam, 1:100; RRID: AB_302615]). Sections were washed (2×15 min with PBST [0.05% Tween20] and 1×15 min with PBS at RT) and incubated for 2 hrs at room temperature in secondary antibodies (anti-rabbit, anti-chicken, or anti-mouse IgG-conjugated Alexa Fluorochrome [Invitrogen; 1:400]). Sections were washed and briefly (<30 seconds) incubated with Hoechst 33342 [H1399, Molecular Probes; 1:10,000] in PBS. The stained sections were imaged using an Olympus FluoView FV1000 confocal microscope with Fluoview imaging software (FV10-ASW). Images of the ventral striatum (nucleus accumbens core and shell) were acquired with a 40× or 60× objective and stacks of 25-30 optical sections (1 μm per section) of depth were Z-projected into a single window and analysed using ImageJ software (NIH).
The number of Iba1+ microglia were manually counted from 212×212 μm (60× objectives) or 317×317 μm (40× objectives) images. TNFα intensity was measured using the mean grey value of the entire image while Iba1 intensity measurements were obtained using a thresholded area to highlight only the microglia. Cell body area (μm^2) was measured based on Iba1 staining and using the freehand selection tool. Additional analysis of microglia morphology in saline and cocaine treated mice was done using IMARIS software (Bitplane). […] The following parameters were analyzed for 40 microglia per group: total process length (sum of length of all processes), total process volume, process diameter and number of branch points and terminals. […]
After 40 cycles, the Ct values were determined.

D1-MSNs in the NAc core [3] = experiment: AMPA/NMDA ratio on D1-MSNs after in vivo treatment; set-up: species or system mouse; conditions: L741,626 i.p. 3 mg/kg co-administered with daily cocaine over 5 days
Method: as §2
Because depotentiation of MSNs reduced cocaine-induced behavioural sensitization (Pascoli et al., 2012), it was tested whether re-activation of microglia would depress NAc synapses and suppress sensitization. To do this, monophosphoryl lipid A (MPLA), a detoxified variant of LPS, was used (Casella and Mitchell, 2008). MPLA acts as a weak TLR4 agonist that is at least 100-fold less pyrogenic than LPS (Cluff, 2010) and is used in humans as an adjuvant for several vaccine formulations. […] It was verified that MPLA activates microglia in the striatum, by injecting 10 μg MPLA IP after 10 days withdrawal from cocaine. […] This is consistent with previous observations that MPLA acts as a microglia modulator (Michaud et al., 2013). […] It was next tested if MPLA treatment would depress synaptic strength in the NAc core. After 10 days of withdrawal, animals were injected with MPLA and evaluated 24 hours later for AMPA/NMDA ratios on D1-MSNs.
240 μm thick coronal slices containing the nucleus accumbens were prepared from brains of 8-9 week-old mice (with fluorescent D1-MSNs). After a 1 h recovery period, slices were placed in a submersion-type recording chamber and perfused (1.5-2 ml/min) at 30° C. with a bicarbonate-buffered artificial CSF saturated with 95% O2/5% CO2 and containing (in mM): 119 NaCl, 2.5 KCl, 1 NaH2PO4, 1.3 MgCl2, 2.5 CaCl2, 26.2 NaHCO3, 11 glucose, and 0.05 picrotoxin. Whole-cell voltage-clamp recordings from medium spiny neurons in the nucleus accumbens core were obtained under visual control using infrared-differential interference contrast microscopy. Whole-cell electrodes (2-4 MΩ) were filled with internal solution containing the following (in mM): 120 CsMeSO3, 15 CsCl, 8 NaCl, 0.2 EGTA, 10 HEPES, 2 Mg-ATP, 0.3 Na-GTP, 10 tetraethylammonium, and 5 QX-314 [5-N-(2,6-dimethylphenylcarbamoylmethyl)triethylammonium bromide] (308-310 mOsm). pH was adjusted to 7.3 with CsOH. Cells with series resistance above 25 MΩ or a 20% change over time were excluded. Synaptic currents were evoked using stainless-steel bipolar stimulating electrodes placed 100-150 μm rostral to the recorded neurons. EPSCs were acquired with an Axopatch 200B (Molecular Devices), filtered at 2 kHz, and digitized at 10 kHz. Acquisition and analysis was performed using pCLAMP 10.2 (Molecular Devices). To calculate AMPA/NMDA ratios, evoked synaptic responses were collected at −70 mV to measure AMPAR-mediated EPSCs and at +40 mV to measure NMDAR-mediated EPSCs. Typically, 20 responses were averaged to generate an average response. The peak AMPA response was used to calculate the AMPAR component and the amplitude at 40 ms post the AMPAR peak response was used to calculate the slower NMDA component at +40 mV to calculate the AMPA/NMDA ratio.

Oc1cc2c(cc1O)C(c1ccccc1)CNCC2 (centres unmarked) [SKF-38393]
change in TNFα mRNA in primary rat microglia cultures [1]: had no effect

Tumor necrosis factor alpha [TNFα]
mean AMPA/NMDA ratio, D1-MSNs (D1-MSNs in the NAc core [2]; TNFα−/− mice treated 24 hours prior with cocaine, 10 ng/ml TNFα ex-vivo): 3.08±0.42
mean AMPA/NMDA ratio, D1 MSNs (D1-MSNs in the NAc core [2]; slices treated with 10 ng/ml TNFα (printed D1(10 ug TNF))): 3.1±0.52
mean AMPA/NMDA ratio, D1 MSNs (D1-MSNs in the NAc core [2]; slices treated with 100 ng/ml TNFα (printed D1(100 ug TNF))): 2.42±0.23
mean AMPA/NMDA ratio, D1-MSNs (D1-MSNs in the NAc core [2]; wildtype mice after 5 daily cocaine injections, 100 ng/ml TNFα ex-vivo): 4.06±0.46
effect on AMPA/NMDA ratios in D2-MSNs (D2-MSNs in the NAc core; TNFα-KO mice, cocaine 24 hours prior, 10 ng/ml TNFα ex-vivo): had no effect
mean AMPA/NMDA ratio, D2 MSNs (D2-MSNs in the NAc core; slices treated with 10 ng/ml TNFα (printed D2(10 ug TNF))): 2.78±0.34
mean AMPA/NMDA ratio, D2 MSNs (D2-MSNs in the NAc core; slices treated with 100 ng/ml TNFα (printed D2(100 ug TNF))): 2.02±0.18

CCCN[C@H]1CCc2nc(N)sc2C1 [pramipexole, pramipexole dihydrochloride]
change in TNFα mRNA in primary rat microglia cultures [1]: did not affect

OC1(c2ccc(Cl)cc2)CCN(Cc2c[nH]c3ccccc23)CC1 [L741,626]
TNFα mRNA in ventral striatum tissue (TNFα): significantly decreases
AMPA/NMDA ratio on D1-MSNs vs cocaine alone (D1-MSNs in the NAc core [3]): increase
